# Measurements from patent US20100273656A1, “COMPOSITION AND METHOD FOR SELECTIVE HERBICIDE” (priority 2002, published 2010).
# Experiments:
# dandelions = experiment: Example 2 field test of FeEDDS and FeHEDTA at pH 3 and 7, dandelion; format: in vivo, Taraxacum officinale
# Procedure: The following non-limiting examples serve to further describe the invention. Unless otherwise specified, all of the iron solutions were made using the same molar concentration of iron ion as chelating agent. All of the outside tests were done on areas of mixed grass and dandelions that were at least 2 months old. For the greenhouse tests, dandelions were grown in a commercial greenhouse mix, using supplemental lighting and heating. Each plant was grown in a 2¼ inch pot to a minimum diameter of 20 cm. All of the solutions were sprayed onto the plants at a rate of 100 ml/m^2. The ferrous sulfate formulations that were used in examples 1, 2, 8 and 9 contained 1% iron (180 mM), 18 mM EDTA, 1% citric acid and 0.5% urea. In all of the examples, the amount of iron is identified in brackets as the percent iron on a weight basis.
# All plant damage was assessed using a qualitative rating scale from 0 to 9.
# The FeEDDS and FeHEDTA solutions contained 0.2% Fe^+3 (35.8 mM). The ferrous sulfate contained 1% Fe^+2 (179.1 mM). The solutions were sprayed at a rate of 0.1 L/m^2 onto 2 plots of 0.5 m^2 of mixed grass and dandelions. Observations were made 4 days after spraying.
# dandelion = experiment: Example 14 field dandelion test of iron chelates and 50:50 mixtures; format: in vivo, Taraxacum officinale; parameters: Surviving Dandelions (%): concentration or dose not given beside the values
# Source text: Solutions were made of FeHEDTA (0.2% Fe), FeEDTA (0.2% Fe), FeEDDS (0.4% Fe), and FeMGDA (0.4% Fe). For the combinations, these 4 solutions were mixed together in a 1:1 ratio. The plots (0.25 m^2) were sprayed 3 times at weekly intervals at a rate of 0.1 L/m^2. The plots contained a mixture of dandelion and hard fescue turfgrass.
structure (smiles),measurement,setting,value
O=C([O-])CN(CCO)CCN(CC(=O)[O-])CC(=O)[O-].[Fe+3] [FeHEDTA],Dandelion Damage (0 to 9),"dandelions; solution pH 2.6-3.0, 0.1 L/m^2, 4 days after spraying",7.0 0 to 9
same,Dandelion Damage (0 to 9),"dandelions; solution pH 7.0-7.1, 0.1 L/m^2, 4 days after spraying",7.5 0 to 9
same,Area Covered by Dandelion (%),dandelion; day 0,40%
same,Dandelion Count (#/0.25 m^2),dandelion; day 0,63 #/0.25 m^2
same,Dandelion Count (#/0.25 m^2),dandelion; day 6,60 #/0.25 m^2
same,Surviving Dandelions (%),dandelion; day 6,95%
same,Area Covered by Dandelion (%),"dandelion; day 6, sprayed 3 times at weekly intervals",20%
same,Dandelion Necrosis (%),dandelion; day 11,95%
same,Dandelion Count (#/0.25 m^2),dandelion; day 13,40 #/0.25 m^2
same,Surviving Dandelions (%),dandelion; day 13,63%
same,Area Covered by Dandelion (%),dandelion; day 15,8%
same,Dandelion Necrosis (%),dandelion; day 18,97%
same,Area Covered by Dandelion (%),dandelion; day 21,2%
same,Dandelion Count (#/0.25 m^2),dandelion; day 21,26 #/0.25 m^2
same,Surviving Dandelions (%),dandelion; day 21,41%
same,Dandelion Necrosis (%),dandelion; day 33,97%
